# According to patent US20190374554A1, “USE OF OXYGENATED CHOLESTEROL SULFATES (OCS) TO TREAT INFLAMMATORY SKIN DISEASE AND SKIN LESIONS” (Virginia Commonwealth University, priority 2016, published 2019):
# Values joined by “and” are separate entries in the source; they are usually repeats but may differ in a detail not shown here. Equal values may be shown once.
# What was measured:
# [1] = system: Hannover Wistar rats; test: Acute single dose intramuscular (IM) injection study in rats; type: in vivo; settings: minimal to moderate, drug-treated vs vehicle
# Experimental: For the acute single dose study, Hannover Wistar rats (n=5/sex/dose group) received a single IM injection followed by 2 and 14 day observation periods. The solution that was tested included 30 mg/mL of 25HC3S sodium salt in vehicle (250 mg/mL hydroxypropyl-β-cyclodextrin in 10 mM sodium phosphate buffer in sterile water). Dose levels of 0 (vehicle), 3, 10 and 30 mg/kg of 25HC3S sodium salt were administered in dose volumes of 1.0, 0.1, 0.3 and 1.0 mL/kg. […] The changes were less severe (minimal only) after 14 days, indicating partial recovery; no clear effect of the presence of 25HC3S or vehicle volume was observed.
# [2] = Infusion compatibility: 25HC3S diluted in 5% dextrose infusion bag and eluted through infusion sets (potency, osmolality, pH, appearance); type: physicochemical; settings: for 24 Hours at 2-8° C. Concentration / 24 Hours at 2-8° C. Osmolality / 24 Hours at 2-8° C. pH / 24 Hours at 25° C. % Remaining Compared to T = 0 / 24 Hours at 25° C. Concentration / 24 Hours at 25° C. Osmolality / 24 Hours at 25° C. pH / T = 0 Conc. / T = 0 Osmolality / T = 0 pH: 5% dextrose bag
# Experimental: A physical and chemical compatibility study was conducted at a 30 mg, 48 mg and 300 mg 25HC3S dose in 5% dextrose and 0.9% sodium chloride infusion bags. Descriptions of the two kinds of infusion sets tested with 25HC3S product diluted in 5% dextrose and 0.9% sodium chloride are listed in Table 15. The tubing in catalog number 2H8480 infusion set was composed of polyvinylchloride (PVC), while the tubing in catalog number 2C8858 was polyethylene lined except for a short pump segment (approximately 12 inches) which was composed of PVC.
# 25HC3S for Injection and Vehicle for 25HC3S for Injection, that had been stored at 2-8° C. for approximately 16 months, were used for the compatibility study. After constitution, 30 mg (1.0 mL of constituted product), 48 mg (1.6 mL of constituted product) or 300 mg (10 mL of constituted product) were added to 100 mL infusion bags of 5% dextrose and 0.9% sodium chloride, mixed thoroughly, and stored for 24 hours at room temperature and at 2-8° C. […] Taking into consideration the overfill per infusion bag and the additional volume introduced by adding the constituted 25HC3S product to each bag, the expected concentrations of 25HC3S were 0.28 mg/mL, 0.44 mg/mL, and 2.56 mg/mL in the infusion bags. Two kinds of infusion sets were then attached to the drug containing infusion bags, and the entire contents were eluted through the infusion sets at approximately 50 mL/hour at room temperature. Samples were collected from the 25HC3S prepared infusion bags at T=0 and at 24 hours, and from the total eluent passed through the infusion sets, and tested for 25HC3S concentration using HPLC. Solution visual appearance, osmolality (using method USP<785>), and pH (using method USP<791>) were also measured on the collected samples.
# [3] = 5% dextrose, approx. 0.28 mg/mL, bag 24 h at 2-8° C., Baxter 2C8858
# [4] = 5% dextrose, approx. 0.28 mg/mL, bag 24 h at 2-8° C., Baxter 2H8480
# [5] = 5% dextrose, approx. 0.28 mg/mL, bag 24 h at 25° C., Baxter 2C8858
# [6] = 5% dextrose, approx. 0.28 mg/mL, bag 24 h at 25° C., Baxter 2H8480
# [7] = 5% dextrose, approx. 0.44 mg/mL, bag 24 h at 2-8° C., Baxter 2C8858
# [8] = 5% dextrose, approx. 0.44 mg/mL, bag 24 h at 2-8° C., Baxter 2H8480
# [9] = 5% dextrose, approx. 0.44 mg/mL, bag 24 h at 25° C., Baxter 2C8858
# [10] = 5% dextrose, approx. 0.44 mg/mL, bag 24 h at 25° C., Baxter 2H8480
# [11] = 5% dextrose, approx. 2.56 mg/mL, bag 24 h at 2-8° C., Baxter 2C8858
# [12] = 5% dextrose, approx. 2.56 mg/mL, bag 24 h at 2-8° C., Baxter 2H8480
# [13] = 5% dextrose, approx. 2.56 mg/mL, bag 24 h at 25° C., Baxter 2C8858
# [14] = 5% dextrose, approx. 2.56 mg/mL, bag 24 h at 25° C., Baxter 2H8480
# [15] = dextrose drug containing solutions
smiles,measurement,setting,value
"C[C@H](CCCC(C)(C)O)[C@H]1CC[C@H]2[C@@H]3CC=C4C[C@@H](OS(=O)(=O)[O-])CC[C@]4(C)[C@H]3CC[C@]12C.[Na+] [Formulation 25HC3S, 5-cholesten-3, 25-diol, 3-sulfate]","muscle degeneration/regeneration, hemorrhage and inflammation in injected muscles",[1],incidence and severity similar in vehicle and drug-treated rats
same,24 Hours at 2-8° C. Concentration,[2]; approx. 0.28 mg/mL 25HC3S,0.280 mg/mL
same,24 Hours at 2-8° C. Osmolality,[2]; approx. 0.28 mg/mL 25HC3S,250 mmol/kg and 253 mmol/kg
same,24 Hours at 2-8° C. pH,[2]; approx. 0.28 mg/mL 25HC3S,7.09 and 7.04
same,24 Hours at 25° C. % Remaining Compared to T = 0,[2]; approx. 0.28 mg/mL 25HC3S,(100.0%)
same,24 Hours at 25° C. Concentration,[2]; approx. 0.28 mg/mL 25HC3S,0.276 mg/mL and 0.277 mg/mL
same,24 Hours at 25° C. Osmolality,[2]; approx. 0.28 mg/mL 25HC3S,252 mmol/kg and 249 mmol/kg
same,24 Hours at 25° C. pH,[2]; approx. 0.28 mg/mL 25HC3S,7.12 and 7.05
same,T = 0 Conc.,[2]; approx. 0.28 mg/mL 25HC3S,0.276 mg/mL and 0.277 mg/mL and 0.280 mg/mL and 0.279 mg/mL
same,T = 0 Osmolality,[2]; approx. 0.28 mg/mL 25HC3S,247 mmol/kg and 250 mmol/kg and 251 mmol/kg
same,T = 0 pH,[2]; approx. 0.28 mg/mL 25HC3S,7.09 and 7.03 and 7.10 and 7.04
same,24 Hours at 2-8° C. Concentration,[2]; approx. 0.44 mg/mL 25HC3S,0.438 mg/mL and 0.440 mg/mL
same,24 Hours at 2-8° C. Osmolality,[2]; approx. 0.44 mg/mL 25HC3S,254 mmol/kg and 257 mmol/kg
same,24 Hours at 2-8° C. pH,[2]; approx. 0.44 mg/mL 25HC3S,6.96 and 6.93
same,24 Hours at 25° C. % Remaining Compared to T = 0,[2]; approx. 0.44 mg/mL 25HC3S,(100.0%)
same,24 Hours at 25° C. Concentration,[2]; approx. 0.44 mg/mL 25HC3S,0.447 mg/mL and 0.442 mg/mL
same,24 Hours at 25° C. Osmolality,[2]; approx. 0.44 mg/mL 25HC3S,256 mmol/kg and 253 mmol/kg
same,24 Hours at 25° C. pH,[2]; approx. 0.44 mg/mL 25HC3S,6.91 and 6.90
same,T = 0 Conc.,[2]; approx. 0.44 mg/mL 25HC3S,0.447 mg/mL and 0.442 mg/mL and 0.439 mg/mL
same,T = 0 Osmolality,[2]; approx. 0.44 mg/mL 25HC3S,255 mmol/kg and 254 mmol/kg and 256 mmol/kg
same,T = 0 pH,[2]; approx. 0.44 mg/mL 25HC3S,6.83 and 6.81 and 6.82 and 6.88
same,24 Hours at 2-8° C. Concentration,[2]; approx. 2.56 mg/mL 25HC3S,2.550 mg/mL and 2.530 mg/mL
same,24 Hours at 2-8° C. Osmolality,[2]; approx. 2.56 mg/mL 25HC3S,246 mmol/kg and 251 mmol/kg
same,24 Hours at 2-8° C. pH,[2]; approx. 2.56 mg/mL 25HC3S,6.11 and 6.14
same,24 Hours at 25° C. Concentration,[2]; approx. 2.56 mg/mL 25HC3S,2.470 mg/mL and 2.520 mg/mL
same,24 Hours at 25° C. Osmolality,[2]; approx. 2.56 mg/mL 25HC3S,257 mmol/kg and 250 mmol/kg
same,24 Hours at 25° C. pH,[2]; approx. 2.56 mg/mL 25HC3S,6.12 and 6.06
same,T = 0 Conc.,[2]; approx. 2.56 mg/mL 25HC3S,2.500 mg/mL and 2.510 mg/mL and 2.530 mg/mL and 2.525 mg/mL
same,T = 0 Osmolality,[2]; approx. 2.56 mg/mL 25HC3S,258 mmol/kg and 247 mmol/kg
same,T = 0 pH,[2]; approx. 2.56 mg/mL 25HC3S,6.04 and 6.12 and 6.29 and 6.26
same,After Storage in Infusion Bag and Collection from Infusion Set % Remaining Compared to T = 0,[2]; [3],(100.4%)
same,After Storage in Infusion Bag and Collection from Infusion Set Concentration,[2]; [3],0.280 mg/mL
same,After Storage in Infusion Bag and Collection from Infusion Set Osmolality,[2]; [3],252 mmol/kg
same,After Storage in Infusion Bag and Collection from Infusion Set pH,[2]; [3],6.99
same,After Storage in Infusion Bag and Collection from Infusion Set % Remaining Compared to T = 0,[2]; [4],(100.0%)
same,After Storage in Infusion Bag and Collection from Infusion Set Concentration,[2]; [4],0.280 mg/mL
same,After Storage in Infusion Bag and Collection from Infusion Set Osmolality,[2]; [4],251 mmol/kg
same,After Storage in Infusion Bag and Collection from Infusion Set pH,[2]; [4],6.95
same,After Storage in Infusion Bag and Collection from Infusion Set % Remaining Compared to T = 0,[2]; [5],(100.0%)
same,After Storage in Infusion Bag and Collection from Infusion Set Concentration,[2]; [5],0.277 mg/mL
same,After Storage in Infusion Bag and Collection from Infusion Set Osmolality,[2]; [5],252 mmol/kg
same,After Storage in Infusion Bag and Collection from Infusion Set pH,[2]; [5],7.04
same,After Storage in Infusion Bag and Collection from Infusion Set % Remaining Compared to T = 0,[2]; [6],(100.0%)
same,After Storage in Infusion Bag and Collection from Infusion Set Concentration,[2]; [6],0.276 mg/mL
same,After Storage in Infusion Bag and Collection from Infusion Set Osmolality,[2]; [6],252 mmol/kg
same,After Storage in Infusion Bag and Collection from Infusion Set pH,[2]; [6],6.99
same,After Storage in Infusion Bag and Collection from Infusion Set % Remaining Compared to T = 0,[2]; [7],(100.2%)
same,After Storage in Infusion Bag and Collection from Infusion Set Concentration,[2]; [7],0.440 mg/mL
same,After Storage in Infusion Bag and Collection from Infusion Set Osmolality,[2]; [7],255 mmol/kg
same,After Storage in Infusion Bag and Collection from Infusion Set pH,[2]; [7],6.93
same,After Storage in Infusion Bag and Collection from Infusion Set % Remaining Compared to T = 0,[2]; [8],(100.2%)
same,After Storage in Infusion Bag and Collection from Infusion Set Concentration,[2]; [8],0.440 mg/mL
same,After Storage in Infusion Bag and Collection from Infusion Set Osmolality,[2]; [8],257 mmol/kg
same,After Storage in Infusion Bag and Collection from Infusion Set pH,[2]; [8],6.91
same,After Storage in Infusion Bag and Collection from Infusion Set % Remaining Compared to T = 0,[2]; [9],(100.0%)
same,After Storage in Infusion Bag and Collection from Infusion Set Concentration,[2]; [9],0.442 mg/mL
same,After Storage in Infusion Bag and Collection from Infusion Set Osmolality,[2]; [9],253 mmol/kg
same,After Storage in Infusion Bag and Collection from Infusion Set pH,[2]; [9],6.90
same,After Storage in Infusion Bag and Collection from Infusion Set % Remaining Compared to T = 0,[2]; [10],(100.2%)
same,After Storage in Infusion Bag and Collection from Infusion Set Concentration,[2]; [10],0.448 mg/mL
same,After Storage in Infusion Bag and Collection from Infusion Set Osmolality,[2]; [10],253 mmol/kg
same,After Storage in Infusion Bag and Collection from Infusion Set pH,[2]; [10],6.91
same,After Storage in Infusion Bag and Collection from Infusion Set % Remaining Compared to T = 0,[2]; [11],(100.4%)
same,After Storage in Infusion Bag and Collection from Infusion Set Concentration,[2]; [11],2.535 mg/mL
same,After Storage in Infusion Bag and Collection from Infusion Set Osmolality,[2]; [11],248 mmol/kg
same,After Storage in Infusion Bag and Collection from Infusion Set pH,[2]; [11],6.10
same,After Storage in Infusion Bag and Collection from Infusion Set % Remaining Compared to T = 0,[2]; [12],(100.4%)
same,After Storage in Infusion Bag and Collection from Infusion Set Concentration,[2]; [12],2.540 mg/mL
same,After Storage in Infusion Bag and Collection from Infusion Set Osmolality,[2]; [12],247 mmol/kg
same,After Storage in Infusion Bag and Collection from Infusion Set pH,[2]; [12],5.99
same,After Storage in Infusion Bag and Collection from Infusion Set % Remaining Compared to T = 0,[2]; [13],(101.4%)
same,After Storage in Infusion Bag and Collection from Infusion Set Concentration,[2]; [13],2.545 mg/mL
same,After Storage in Infusion Bag and Collection from Infusion Set Osmolality,[2]; [13],251 mmol/kg
same,After Storage in Infusion Bag and Collection from Infusion Set pH,[2]; [13],6.00
same,After Storage in Infusion Bag and Collection from Infusion Set % Remaining Compared to T = 0,[2]; [14],(99.2%)
same,After Storage in Infusion Bag and Collection from Infusion Set Concentration,[2]; [14],2.480 mg/mL
same,After Storage in Infusion Bag and Collection from Infusion Set Osmolality,[2]; [14],261 mmol/kg
same,After Storage in Infusion Bag and Collection from Infusion Set pH,[2]; [14],6.01
same,deviation of 25HC3S concentrations from the initial T=0 time point,"[2]; 5% dextrose, after 24 hours at room temperature and at 2-8° C., and after elution through infusion sets",≤ 1.4%
same,osmolality trend,[2]; [15],no consistent trends over time in the infusion bag or after elution through the infusion sets
same,pH trend,[2]; [15],no trends over time or after elution through the infusion sets
same,solution visual appearance,"[2]; dextrose, all three concentrations, after 24 hours in bags and after elution",remained as clear and colorless solutions
